Assay results published in patent US20200131132A1, “FARNESOID X RECEPTOR AGONISTS AND USES THEREOF” (Metacrine, Inc., priority 2017, published 2020).

Each compound was assayed against T1, hFXR (Homo sapiens, UniProt Q96RI1) (assay: In Vitro FXR Assay (TK)). Conditions: CV-1 cells transfected with hFXR, hRXR, TK-ECRE-luc and pCMX-YFP; compounds incubated 18 hrs; luminescence.
T1 construct: expressed in transfected cells; host or cells: CV-1 cells
T1 sequence (Q96RI1 1-486): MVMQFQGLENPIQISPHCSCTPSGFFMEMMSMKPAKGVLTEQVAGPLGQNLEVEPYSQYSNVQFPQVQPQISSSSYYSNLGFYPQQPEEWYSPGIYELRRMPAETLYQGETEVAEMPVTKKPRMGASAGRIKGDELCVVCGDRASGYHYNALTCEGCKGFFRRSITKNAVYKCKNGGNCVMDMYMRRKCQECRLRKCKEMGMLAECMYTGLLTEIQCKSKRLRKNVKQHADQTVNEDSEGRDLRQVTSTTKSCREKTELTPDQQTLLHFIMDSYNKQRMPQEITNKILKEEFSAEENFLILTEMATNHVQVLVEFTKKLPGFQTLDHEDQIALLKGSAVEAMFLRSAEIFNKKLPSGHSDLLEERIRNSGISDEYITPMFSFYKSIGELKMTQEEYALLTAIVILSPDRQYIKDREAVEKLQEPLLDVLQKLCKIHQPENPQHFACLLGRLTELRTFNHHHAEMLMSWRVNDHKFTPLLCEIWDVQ
T1 sequence (P19793 1-462 partner): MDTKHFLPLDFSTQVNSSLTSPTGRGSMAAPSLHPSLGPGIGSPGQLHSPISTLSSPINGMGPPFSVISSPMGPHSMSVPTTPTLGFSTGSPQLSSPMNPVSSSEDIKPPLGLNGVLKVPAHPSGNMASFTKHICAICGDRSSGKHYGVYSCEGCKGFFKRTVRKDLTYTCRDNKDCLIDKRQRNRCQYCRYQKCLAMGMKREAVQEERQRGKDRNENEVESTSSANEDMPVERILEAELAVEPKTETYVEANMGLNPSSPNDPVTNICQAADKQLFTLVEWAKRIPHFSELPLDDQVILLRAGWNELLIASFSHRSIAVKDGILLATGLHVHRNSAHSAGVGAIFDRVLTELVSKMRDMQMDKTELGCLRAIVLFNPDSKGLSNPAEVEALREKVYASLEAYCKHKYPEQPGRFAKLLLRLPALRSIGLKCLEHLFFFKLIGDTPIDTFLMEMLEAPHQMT
Type: cell-based
Experimental: CV-1 cells were seeded at a density of 2,000,000 cells in a T175 flask with DMEM+10% charcoal double-stripped FBS and incubated at 37° C. in 5% CO2 for 18 h (O/N).
After 18 h of incubation, the medium in the T175 flask was changed with fresh DMEM+10% charcoal super-stripped serum. In a polypropylene tube, 2500 μL OptiMEM (Life Technologies, Cat #31985-062) was combined with expression plasmids for hFXR, hRXR, TK-ECRE-luc and pCMX-YFP. The tube was then briefly vortexed and incubated at room temperature for 5 minutes. Transfection reagent (X-tremeGENE HP from Roche, Cat #06 366 236 001) was added to the OptiMEM/plasmid mixture vortexed and incubated at room temperature for 20 minutes. Following incubation, the transfection reagent/DNA mixture complex was added to cells in the T175 flask and the cells were incubated at 37° C. in 5% CO2 for 18 h (O/N).
Compounds were serially diluted in DMSO and added to transfected CV-1 cells. The cells were then incubated for 18 hrs. The next day cells were lysed and examined for luminescence.

| EC50 [nM] | SMILES |
| --- | --- |
| 1000 to 10000 | COc1ccc(-c2ccc(CN(C(=O)CC(C)(C)C)c3nccc4cc(COCC(=O)O)ccc34)cc2)cc1C [Compound 29.01, 2-((1-(N-((4′-Methoxy-3′-methyl-[1,1′-biphenyl]-4-yl)methyl)-3,3-dimethylbutanamido)isoquinolin-6-yl)methoxy)acetic acid] |
| ≤ 1000 | COc1ccc(-c2ccc(CN(C(=O)CC(C)(C)C)c3nccc4cc(N(C)CCO)ccc34)cc2)cc1C [Compound 6.01, N-(6-((2-Hydroxyethyl)(methyl)amino)iso-quinolin-1-yl)-N-((4′-methoxy-3′-methyl-[1,1′-biphenyl]-4-yl)methyl)-3,3-dimethylbutanamide] |
| ≤ 1000 | COc1ccc(-c2ccc(CN(C(=O)CC(C)(C)C)c3nccc4cc(N5CCC(C#N)C5)ccc34)cc2)cc1C (stereo not drawn) [Compound 6.13, N-(6-(3-Cyanopyrrolidin-1-yl)isoquinolin-1-yl)-N-((4′-methoxy-3′-methyl-[1,1′-biphenyl]-4-yl)methyl)-3,3-dimethylbutanamide] |
| ≤ 1000 | COC(=O)COCc1ccc2c(N(Cc3ccc(-c4ccc(OC)c(C)c4)cc3)C(=O)CC(C)(C)C)nccc2c1 [Compound 9.02, Methyl 2-((1-(N-((4′-methoxy-3′-methyl-[1,1′-biphenyl]-4-yl)methyl)-3,3-dimethylbutanamido)isoquinolin-6-yl)methoxy)acetate] |
| 1000 to 10000 | COc1ccc(-c2ccc(CN(C(=O)CC(C)(C)C)c3nccc4cc(N5CCN(C)CC5)ccc34)cc2)cc1C [Compound 6.05, N-((4′-Methoxy-3′-methyl-[1,1′-biphenyl]-4-yl)methyl)-3,3-dimethyl-N-(6-(4-methylpiperazin-1-yl)isoquinolin-1-yl)butanamide] |
| ≤ 1000 | COc1ccc(-c2ccc(CN(C(=O)CC(C)(C)C)c3nccc4cc(N5CCOCC5)ccc34)cc2)cc1C [Compound 6.06, N-((4′-Methoxy-3′-methyl-[1,1′-biphenyl]-4-yl)methyl)-3,3-dimethyl-N-(6-morpholinoisoquinolin-1-yl)butanamide] |
| ≤ 1000 | COc1ccc(-c2ccc(CN(C(=O)CC(C)(C)C)c3nccc4cc(OC5COC5)ccc34)cc2)cc1C [Compound 8.09, N-((4′-Methoxy-3′-methyl-[1,1′-biphenyl]-4-yl)methyl)-3,3-dimethyl-N-(6-(oxetan-3-yloxy)isoquinolin-1-yl)butanamide] |
| 1000 to 10000 | CNC(=O)COc1ccc2c(N(Cc3ccc(-c4ccc(OC)c(C)c4)cc3)C(=O)CC(C)(C)C)nccc2c1 [Compound 8.01, N-((4′-Methoxy-3′-methyl-[1,1′-biphenyl]-4-yl)methyl)-3,3-dimethyl-N-(6-(2-(methylamino)-2-oxoethoxy)isoquinolin-1-yl)butanamide] |

Further lines, the compound ahead of its results:

| SMILES | EC50 [nM] |
| --- | --- |
| COc1ccc(-c2ccc(CN(C(=O)CC(C)(C)C)c3nccc4cc(/C=C\CO)ccc34)cc2)cc1C [Compound 22, (Z)-N-(6-(3-Hydroxyprop-1-en-1-yl)isoquinolin-1-yl)-N-((4′-methoxy-3′-methyl-[1,1′-biphenyl]-4-yl)methyl)-3,3-dimethylbutanamide] | ≤ 1000 |
| COCCOc1ccc2c(N(Cc3ccc(-c4ccc(OC)c(C)c4)cc3)C(=O)CC(C)(C)C)nccc2c1 [Compound 9, N-((4′-Methoxy-3′-methyl-[1,1′-biphenyl]-4-yl)methyl)-N-(6-(2-methoxyethoxy)isoquinolin-1-yl)-3,3-dimethylbutanamide] | ≤ 1000 |
| COc1ccc(-c2ccc(CN(C(=O)CC(C)(C)C)c3nccc4cc(OC5CN(C)C5)ccc34)cc2)cc1C [Compound 30, N-((4′-Methoxy-3′-methyl-[1,1′-biphenyl]-4-yl)methyl)-3,3-dimethyl-N-(6-((1-methylazetidin-3-yl)oxy)isoquinolin-1-yl)butanamide] | > 10000 |
| COc1ccc(-c2ccc(CN(C(=O)CC(C)(C)C)c3nccc4cc(CC#N)ccc34)cc2)cc1C [Compound 27, N-(6-(Cyanomethyl)isoquinolin-1-yl)-N-((4′-methoxy-3′-methyl-[1,1′-biphenyl]-4-yl)methyl)-3,3-dimethylbutanamide] | ≤ 1000 |
| COc1ccc(-c2ccc(CN(C(=O)CC(C)(C)C)c3nccc4cc(OCCS(C)(=O)=O)ccc34)cc2)cc1C [Compound 32, N-((4′-Methoxy-3′-methyl-[1,1′-biphenyl]-4-yl)methyl)-3,3-dimethyl-N-(6-(2-(methylsulfonyl)ethoxy)isoquinolin-1-yl)butanamide] | ≤ 1000 |
| COc1ccc(-c2ccc(CN(C(=O)CC(C)(C)C)c3nccc4cc(-c5ncco5)ccc34)cc2)cc1C [Compound 14, N-((4′-Methoxy-3′-methyl-[1,1′-biphenyl]-4-yl)methyl)-3,3-dimethyl-N-(6-(oxazol-2-yl)isoquinolin-1-yl)butanamide] | ≤ 1000 |
| COc1ccc(-c2ccc(CN(C(=O)CC(C)(C)C)c3nccc4cc(COCCO)ccc34)cc2)cc1C [Compound 2.02, N-(6-((2-Hydroxyethoxy)methyl)isoquinolin-1-yl)-N-((4′-methoxy-3′-methyl-[1,1′-biphenyl]-4-yl)methyl)-3,3-dimethylbutanamide] | ≤ 1000 |
| COc1ccc(-c2ccc(CN(C(=O)CC(C)(C)C)c3ccnc4ccccc34)cc2)cc1C [Compound 4.08, N-((4′-Methoxy-3′-methyl-[1,1′-biphenyl]-4-yl)methyl)-3,3-dimethyl-N-(quinolin-4-yl)butanamide] | > 10000 |
| COc1ccc(-c2ccc(CN(C(=O)CC(C)(C)C)c3nccc4cc(O)ccc34)cc2)cc1C [Compound 7, N-(6-Hydroxyisoquinolin-1-yl)-N-((4′-methoxy-3′-methyl-[1,1′-biphenyl]-4-yl)methyl)-3,3-dimethylbutanamide] | ≤ 1000 |
| COc1ccc(-c2ccc(CN(C(=O)CC(C)(C)C)c3nccc4cc(-c5ccccn5)ccc34)cc2)cc1C [Compound 16, N-((4′-Methoxy-3′-methyl-[1,1′-biphenyl]-4-yl)methyl)-3,3-dimethyl-N-(6-(pyridin-2-yl)isoquinolin-1-yl)butanamide] | ≤ 1000 |
| COc1ccc(-c2ccc(CN(C(=O)CC(C)(C)C)c3cccc4ccncc34)cc2)cc1C [Compound 5.02, N-(Isoquinolin-8-yl)-N-((4′-methoxy-3′-methyl-[1,1′-biphenyl]-4-yl)methyl)-3,3-dimethylbutanamide] | > 10000 |
| COc1ccc(-c2ccc(CN(C(=O)CC(C)(C)C)c3nccc4c3CCCC4)cc2)cc1C [Compound 4.03, N-((4′-Methoxy-3′-methyl-[1,1′-biphenyl]-4-yl)methyl)-3,3-dimethyl-N-(5,6,7,8-tetrahydroisoquinolin-1-yl)butanamide] | 1000 to 10000 |
| COc1ccc(-c2ccc(CN(C(=O)CC(C)(C)C)c3nccc4ccccc34)cc2)cc1C [Compound 20, N-(Isoquinolin-1-yl)-N-((4′-methoxy-3′-methyl-[1,1′-biphenyl]-4-yl)methyl)-3,3-dimethylbutanamide] | ≤ 1000 |
| COc1ccc(-c2ccc(CN(C(=O)CC(C)(C)C)c3nccc4cc(/C=C/CO)ccc34)cc2)cc1C [Compound 23, (E)-N-(6-(3-Hydroxyprop-1-en-1-yl)isoquinolin-1-yl)-N-((4′-methoxy-3′-methyl-[1,1′-biphenyl]-4-yl)methyl)-3,3-dimethylbutanamide] | ≤ 1000 |
| COc1ccc(-c2ccc(CN(C(=O)CC(C)(C)C)c3nccc4cc(OC(C)CO)ccc34)cc2)cc1C (stereo not drawn) [Compound 31, N-(6-((1-Hydroxypropan-2-yl)oxy)isoquinolin-1-yl)-N-((4′-methoxy-3′-methyl-[1,1′-biphenyl]-4-yl)methyl)-3,3-dimethylbutanamide] | ≤ 1000 |
| COc1ncc(-c2ccc3c(N(Cc4ccc(-c5ccc(OC)c(C)c5)cc4)C(=O)CC(C)(C)C)nccc3c2)s1 [Compound 15, N-((4′-Methoxy-3′-methyl-[1,1′-biphenyl]-4-yl)methyl)-N-(6-(2-methoxythiazol-5-yl)isoquinolin-1-yl)-3,3-dimethylbutanamide] | 1000 to 10000 |
